The source made the active and inactive calls. The calls are words filed in the database; no cut-off is given here.
Columns and labels:
[1] = Toxicity in po dosed Spanish V-line rabbit assessed as mortality after 24 hrs; type: organism-based, Oryctolagus cuniculus; details: in vivo
Oryctolagus cuniculus [2] = assay: In vivo inhibition of Spanish V-line rabbit liver alpha-glucosidase assessed as specific enzyme activity per mg protein using maltose as substrate at 10% LD50, po after 8 hrs; type: functional
Oryctolagus cuniculus [3] = assay: In vivo inhibition of Spanish V-line rabbit liver alpha-glucosidase assessed as specific enzyme activity per mg protein using maltose as substrate at 10% LD50, po after 16 hrs; type: functional
Oryctolagus cuniculus [4] = assay: In vivo inhibition of Spanish V-line rabbit liver alpha-glucosidase assessed as specific enzyme activity per mg protein using maltose as substrate at 10% LD50, po after 24 hrs; type: functional
Oryctolagus cuniculus [5] = assay: In vivo inhibition of Spanish V-line rabbit liver alpha-glucosidase assessed as specific enzyme activity per mg protein using maltose as substrate at 10% LD50, po after 48 hrs; type: functional
Oryctolagus cuniculus [6] = assay: In vivo inhibition of Spanish V-line rabbit liver alpha-glucosidase assessed as specific enzyme activity per mg protein using maltose as substrate at 10% LD50, po after 72 hrs; type: functional
Oryctolagus cuniculus [7] = assay: In vivo inhibition of Spanish V-line rabbit liver alpha-glucosidase assessed as specific enzyme activity per mg protein using maltose as substrate at 10% LD50, po after 96 hrs; type: functional
Oryctolagus cuniculus [8] = assay: In vivo inhibition of Spanish V-line rabbit liver alpha-amylase assessed as specific enzyme activity per mg protein using starch as substrate at 10% LD50, po after 8 hrs; type: functional
Oryctolagus cuniculus [9] = assay: In vivo inhibition of Spanish V-line rabbit liver alpha-amylase assessed as specific enzyme activity per mg protein using starch as substrate at 10% LD50, po after 16 hrs; type: functional
Oryctolagus cuniculus [10] = assay: In vivo inhibition of Spanish V-line rabbit liver alpha-amylase assessed as specific enzyme activity per mg protein using starch as substrate at 10% LD50, po after 24 hrs; type: functional
Oryctolagus cuniculus [11] = assay: In vivo inhibition of Spanish V-line rabbit liver alpha-amylase assessed as specific enzyme activity per mg protein using starch as substrate at 10% LD50, po after 48 hrs; type: functional
Oryctolagus cuniculus [12] = assay: In vivo inhibition of Spanish V-line rabbit liver alpha-amylase assessed as specific enzyme activity per mg protein using starch as substrate at 10% LD50, po after 72 hrs; type: functional
Oryctolagus cuniculus [13] = assay: In vivo inhibition of Spanish V-line rabbit liver alpha-amylase assessed as specific enzyme activity per mg protein using starch as substrate at 10% LD50, po after 96 hrs; type: functional
Oryctolagus cuniculus [14] = assay: In vivo inhibition of Spanish V-line rabbit liver alpha-amylase assessed as specific enzyme activity per mg protein using starch as substrate at 10% LD50, po after 120 hrs; type: functional
Oryctolagus cuniculus [15] = assay: In vivo inhibition of Spanish V-line rabbit alpha-glucosidase using maltose as substrate at 25% LD50, po after 24 hrs relative to control; type: functional
Oryctolagus cuniculus [16] = assay: In vivo inhibition of Spanish V-line rabbit liver alpha-glucosidase assessed as specific enzyme activity per mg protein using maltose as substrate at 10% LD50, po after 120 hrs; type: functional
Oryctolagus cuniculus [17] = assay: In vivo inhibition of alpha-glucosidase in po dosed Spanish V-line rabbit using maltose as substrate after 24 hrs; type: functional, organism-based
Oryctolagus cuniculus [18] = assay: In vivo inhibition of alpha-amylase in po dosed Spanish V-line rabbit using starch as substrate at after 24 hrs; type: functional, organism-based
Oryctolagus cuniculus [19] = assay: In vivo inhibition of Spanish V-line rabbit alpha-amylase using starch as substrate at 25% LD50, po after 24 hrs relative to control; type: functional
[20] = Inhibition of Spanish V-line rabbit liver alpha-glucosidase using maltose as substrate after 5 mins by spectrophotometry; design: species or system Oryctolagus cuniculus
Oryctolagus cuniculus [21] = species on record: Oryctolagus cuniculus; assay: Reversible Inhibition of Spanish V-line rabbit liver alpha-glucosidase using maltose as substrate compound preincubated for 60 mins by dialysis method
Oryctolagus cuniculus [22] = species on record: Oryctolagus cuniculus; assay: Reversible Inhibition of Spanish V-line rabbit liver alpha-amylase using starch as substrate compound preincubated for 60 mins by dialysis method
Oryctolagus cuniculus [23] = species on record: Oryctolagus cuniculus; assay: Inhibition of Spanish V-line rabbit liver alpha-amylase using starch as substrate assessed per mg protein at 16 uM by Lineweaver-Burk plot ( RVb = 9.0 +/- 0.8 10^-3 uM/min/mg protein )
Oryctolagus cuniculus [24] = species on record: Oryctolagus cuniculus; assay: Inhibition of Spanish V-line rabbit liver alpha-amylase using starch as substrate assessed per mg protein at 32 uM by Lineweaver-Burk plot ( RVb = 9.0 +/- 0.8 10^-3 uM/min/mg protein )
Oryctolagus cuniculus [25] = species on record: Oryctolagus cuniculus; assay: Inhibition of Spanish V-line rabbit liver alpha-amylase using starch as substrate assessed per mg protein at 64 uM by Lineweaver-Burk plot ( RVb = 9.0 +/- 0.8 10^-3 uM/min/mg protein )
Oryctolagus cuniculus [26] = species on record: Oryctolagus cuniculus; assay: Inhibition of Spanish V-line rabbit liver alpha-amylase using starch as substrate assessed per mg protein at 48 uM by Lineweaver-Burk plot ( RVb = 9.0 +/- 0.8 10^-3 uM/min/mg protein )
Oryctolagus cuniculus [27] = species on record: Oryctolagus cuniculus; assay: Inhibition of Spanish V-line rabbit liver alpha-glucosidase using maltose as substrate assessed per mg protein at 16 uM by Lineweaver-Burk plot ( RVb = 55 +/- 5 10^-3 uM/min/mg protein )
Oryctolagus cuniculus [28] = species on record: Oryctolagus cuniculus; assay: Inhibition of Spanish V-line rabbit liver alpha-glucosidase using maltose as substrate assessed per mg protein at 32 uM by Lineweaver-Burk plot ( RVb = 55 +/- 5 10^-3 uM/min/mg protein )
Oryctolagus cuniculus [29] = species on record: Oryctolagus cuniculus; assay: Inhibition of Spanish V-line rabbit liver alpha-glucosidase using maltose as substrate assessed per mg protein at 48 uM by Lineweaver-Burk plot ( RVb = 55 +/- 5 10^-3 uM/min/mg protein )
Oryctolagus cuniculus [30] = species on record: Oryctolagus cuniculus; assay: Inhibition of Spanish V-line rabbit liver alpha-glucosidase using maltose as substrate assessed per mg protein at 64 uM by Lineweaver-Burk plot ( RVb = 55 +/- 5 10^-3 uM/min/mg protein )
[31] = Competitive inhibition of Spanish V-line rabbit liver alpha-glucosidase using maltose as substrate by Dixon plot analysis; design: species or system Oryctolagus cuniculus
Oryctolagus cuniculus [32] = species on record: Oryctolagus cuniculus; assay: Competitive inhibition of Spanish V-line rabbit liver alpha-glucosidase using maltose as substrate
Oryctolagus cuniculus [33] = species on record: Oryctolagus cuniculus; assay: Inhibition of Spanish V-line rabbit liver alpha-amylase using starch as substrate
Oryctolagus cuniculus [34] = species on record: Oryctolagus cuniculus; assay: Inhibition of Spanish V-line rabbit liver alpha-glucosidase using maltose as substrate assessed per mg protein at 12 uM by Lineweaver-Burk plot ( RVb = 55 +/- 5.2 10^-3 uM/min/mg protein )
[35] = Inhibition of Spanish V-line rabbit liver alpha-amylase using starch as substrate after 5 mins by spectrophotometry; design: species or system Oryctolagus cuniculus
Oryctolagus cuniculus [36] = species on record: Oryctolagus cuniculus; assay: Inhibition of Spanish V-line rabbit liver alpha-glucosidase using maltose as substrate assessed per mg protein at 24 uM by Lineweaver-Burk plot ( RVb = 55 +/- 5.2 10^-3 uM/min/mg protein )
Oryctolagus cuniculus [37] = species on record: Oryctolagus cuniculus; assay: Inhibition of Spanish V-line rabbit liver alpha-glucosidase using maltose as substrate assessed per mg protein at 36 uM by Lineweaver-Burk plot ( RVb = 55 +/- 5.2 10^-3 uM/min/mg protein )
Oryctolagus cuniculus [38] = species on record: Oryctolagus cuniculus; assay: Inhibition of Spanish V-line rabbit liver alpha-glucosidase using maltose as substrate assessed per mg protein at 48 uM by Lineweaver-Burk plot ( RVb = 55 +/- 5.2 10^-3 uM/min/mg protein )
Oryctolagus cuniculus [39] = species on record: Oryctolagus cuniculus; assay: Inhibition of Spanish V-line rabbit liver alpha-amylase using starch as substrate assessed per mg protein at 12 uM by Lineweaver-Burk plot ( RVb = 9.0 +/- 0.8 10^-3 uM/min/mg protein )
Oryctolagus cuniculus [40] = species on record: Oryctolagus cuniculus; assay: Inhibition of Spanish V-line rabbit liver alpha-amylase using starch as substrate assessed per mg protein at 24 uM by Lineweaver-Burk plot ( RVb = 9.0 +/- 0.8 10^-3 uM/min/mg protein )
Oryctolagus cuniculus [41] = species on record: Oryctolagus cuniculus; assay: Inhibition of Spanish V-line rabbit liver alpha-amylase using starch as substrate assessed per mg protein at 36 uM by Lineweaver-Burk plot ( RVb = 9.0 +/- 0.8 10^-3 uM/min/mg protein )
[42] = Non-competitive inhibition of Spanish V-line rabbit liver alpha-glucosidase using maltose as substrate by Dixon plot analysis; design: species or system Oryctolagus cuniculus
[43] = Non-competitive inhibition of Spanish V-line rabbit liver alpha-glucosidase using maltose as substrate by Lineweaver-Burk plot analysis; design: species or system Oryctolagus cuniculus
[44] = Non-competitive inhibition of Spanish V-line rabbit liver alpha-amylase using starch as substrate by Lineweaver-Burk plot analysis; design: species or system Oryctolagus cuniculus
[45] = Non-competitive inhibition of Spanish V-line rabbit liver alpha-amylase using starch as substrate by Dixon plot analysis; design: species or system Oryctolagus cuniculus
Oryctolagus cuniculus [46] = species on record: Oryctolagus cuniculus; assay: Non-competitive inhibition of Spanish V-line rabbit liver alpha-glucosidase using maltose as substrate
Oryctolagus cuniculus [47] = species on record: Oryctolagus cuniculus; assay: Non-competitive inhibition of Spanish V-line rabbit liver alpha-amylase using starch as substrate

| SMILES | LD50 at 24 h [1] | Activity (Oryctolagus cuniculus [2]) | Activity (Oryctolagus cuniculus [3]) | Activity (Oryctolagus cuniculus [4]) | Activity (Oryctolagus cuniculus [5]) | Activity (Oryctolagus cuniculus [6]) | Activity (Oryctolagus cuniculus [7]) | Activity (Oryctolagus cuniculus [8]) | Activity (Oryctolagus cuniculus [9]) | Activity (Oryctolagus cuniculus [10]) | Activity (Oryctolagus cuniculus [11]) | Activity (Oryctolagus cuniculus [12]) | Activity (Oryctolagus cuniculus [13]) | Activity (Oryctolagus cuniculus [14]) | inhibition (INH) (Oryctolagus cuniculus [15]) | Activity (Oryctolagus cuniculus [16]) | inhibition (Oryctolagus cuniculus [17]) | inhibition (Oryctolagus cuniculus [18]) | inhibition (INH) (Oryctolagus cuniculus [19]) | IC50 [20] | also measured |
| --- | --- | --- | --- | --- | --- | --- | --- | --- | --- | --- | --- | --- | --- | --- | --- | --- | --- | --- | --- | --- | --- |
| Oc1ccccc1-c1nnc(S)n1-c1ccccc1 | 155 mg/kg | 15.6 µM/min | 14.2 µM/min | 13.1 µM/min | 14.2 µM/min | 15.6 µM/min | 16.2 µM/min | 4.8 µM/min | 4.4 µM/min | 4.3 µM/min | 4.4 µM/min | 4.6 µM/min | 4.8 µM/min | 5.1 µM/min | 57% | 18.8 µM/min | Dose-dependent effect | Dose-dependent effect | 27% | 105 µM | inhibition (Oryctolagus cuniculus [21]): Active; inhibition (Oryctolagus cuniculus [22]): Active; Vmax (Oryctolagus cuniculus [23]): 9.3 nM/min; Vmax (Oryctolagus cuniculus [24]): 9.2 nM/min; Vmax (Oryctolagus cuniculus [25]): 8.9 nM/min; Vmax (Oryctolagus cuniculus [26]): 9.5 nM/min; Vmax (Oryctolagus cuniculus [27]): 16.6 nM/min; Vmax (Oryctolagus cuniculus [28]): 15.6 nM/min; Vmax (Oryctolagus cuniculus [29]): 12.5 nM/min; Vmax (Oryctolagus cuniculus [30]): 10.2 nM/min; Ki [31]: 50.8 µM; inhibition (Oryctolagus cuniculus [32]): Dose-dependent effect; inhibition (Oryctolagus cuniculus [33]): Dose-dependent effect |
| S=C1N=C(c2ccccc2)C(c2ccccc2)=N1 | 204 mg/kg | 17.6 µM/min | 15.2 µM/min | 14.3 µM/min | 15.6 µM/min | 16.9 µM/min | 19.3 µM/min | 3.8 µM/min | 3.1 µM/min | 2.3 µM/min | 2.9 µM/min | 3.3 µM/min | 4.3 µM/min | 4.4 µM/min | 62% | 23.5 µM/min | Dose-dependent effect | Dose-dependent effect | 53% | 56 µM | Vmax (Oryctolagus cuniculus [34]): 41 nM/min; IC50 [35]: 47 µM; inhibition (Oryctolagus cuniculus [21]): Active; inhibition (Oryctolagus cuniculus [22]): Active; Vmax (Oryctolagus cuniculus [36]): 33 nM/min; Vmax (Oryctolagus cuniculus [37]): 27 nM/min; Vmax (Oryctolagus cuniculus [38]): 2.4 nM/min; Vmax (Oryctolagus cuniculus [39]): 8.3 nM/min; Vmax (Oryctolagus cuniculus [40]): 7.1 nM/min; Vmax (Oryctolagus cuniculus [41]): 6.3 nM/min; Vmax (Oryctolagus cuniculus [26]): 5.5 nM/min; Ki [42]: 43 µM; Ki [43]: 35 µM; Ki [44]: 63 µM; Ki [45]: 60 µM; inhibition (Oryctolagus cuniculus [46]): Dose-dependent effect; inhibition (Oryctolagus cuniculus [47]): Dose-dependent effect |

From ChEMBL document CHEMBL2151017, “Inhibition of α-glucosidase and α-amylase by diaryl derivatives of imidazole-thione and 1,2,4-triazole-thiol” (Eur J Med Chem, 2011)
